From patent US12115208B2, “Small-molecule adjuvants for antibiotics to address antibiotic resistance” (HIGH POINT UNIVERSITY, priority 2017, dated 2024)
“And” between values parts separate entries of the source, which are not always exact repeats. Equal entries are not always repeated. Where two headings read alike, the source gives them in different places.

Experiments:
S. epidermidis 49461 = test: Antibiotic repotentiation (oxacillin MIC with/without compound); format: cell-based, Staphylococcus epidermidis
Description: (§1) The overnight culture was diluted into fresh CAMHB to a concentration of 5×10^5 CFU/ml. […] On the same plate, a standard microdilution MIC with the tested antibiotics and no added compound was also performed to compare the antibiotic MIC in the presence and absence of compound. […] Fold reductions were calculated by dividing the MIC of the antibiotic without compound by the MIC of the antibiotic in the presence of compound.
Antibiotic potentiation in S. epidermidis was also investigated.

S. aureus USA100 (MRSA) = test: Antibiotic repotentiation (antibiotic MIC with/without compound); format: cell-based, Staphylococcus aureus; conditions: for MIC of antibiotic: MRSA USA100
Description: as §1

[1] = tested on: S. aureus NR-49120 (VRSA); test: as above; format: cell-based, Staphylococcus aureus; conditions: VRSA NR-49120
Description: as §1

S. aureus ATCC 29213 [2] = test: as above; format: cell-based, Staphylococcus aureus; conditions: for Oxacillin MIC: ATCC 29213
Description: as §1
(§2) The compounds were then analyzed for antibiotic repotentiation activity. […] The tested strains included USA300, which is a common and particularly virulent strain of community-acquired MRSA.

S. aureus 43300 (MRSA) = test: as above; format: cell-based, Staphylococcus aureus
Description: as §1, §2

S. aureus USA300 (MRSA) [3] = test: as above; format: cell-based, Staphylococcus aureus; conditions: for MIC of antibiotic: MRSA USA300
Description: as §1, §2

blaI mRNA = test: RT-qPCR mRNA levels; format: cell-based, Staphylococcus aureus (MRSA)
Description: (§3) Triplicate cultures of each condition were briefly centrifuged and cell pellets were stored at −80° C. Pellets were resuspended in 100 uL of lyphostaphin (1 mg/mL) and incubated at room temperature for 10 minutes. Next, lysates were subjected to a Qiashredder column and RNA was purified with RNeasy columns according to the manufacturer's protocol (Qiagen). An on-column DNase step was also included. Total RNA was quantified and purity was assessed with a Nanodrop spectrophotometer (Thermo Scientific). RNA integrity was visualized by agarose gel electrophoresis using GelRed (Phenix) and a ChemiDoc MP (BioRad).
(§4) 200 ng of total RNA was reverse transcribed using random primers, according to the manufacturer's protocol (BioRad select cDNA synthesis kit). Minus reverse transcriptase controls were prepared for each sample. Next, duplicate qPCR reactions were performed for each cDNA template using SYBR green according to the manufacturer's protocol (BioRad SYBR Green Supermix). Primer sequences are found in Supporting Information. Those that the authors designed used NCBI Primer Blast to specify the annealing temperatures, length, location, and analyze specificity and secondary structure. All reactions were run on a StepOne thermal cycler (Applied Biosystems). Cycling parameters were as follows: 95° C. for 10 minutes, 40 cycles of 95° C. for 15 seconds followed by 60° C. for 1 minute. Specificity of each primer pair was assessed with melt curve analyses and agarose gel electrophoresis. The efficiency of each primer pair was calculated using results from calibration curves generated in Microsoft Excel. Contaminating genomic DNA levels were calculated using the comparative Ct method. Gene expression levels relative to 16S rRNA were calculated using a relative quantification model.^17 Statistical significance was determined by unpaired student's t tests. All calculations were performed using Microsoft Excel.
(§5) See Blazquez, B. et al., “Regulation of the expression of the beta-lactam antibiotic-resistance determinants in methicillin-resistant Staphylococcus aureus (MRSA),” Biochemistry 2014, 53 (10), 1548; Staude, M. W. et al., “Investigation of signal transduction routes within the sensor/transducer protein BlaR1 of Staphylococcus aureus,” Biochemistry 2015, 54 (8), 1600; Thumanu, K., et al., “Discrete steps in sensing of beta-lactam antibiotics by the BlaR1 protein of the methicillin-resistant Staphylococcus aureus bacterium,” Proc Natl Acad Sci USA 2006, 103 (28), 10630, which are incorporated herein by reference in their entireties.

blaZ mRNA = test: RT-qPCR mRNA levels; format: cell-based, Staphylococcus aureus (MRSA)
Description: as §3, §4, §5

MRSA = test: Growth curves; format: cell-based, Staphylococcus aureus; conditions: MRSA in CAMHB; for effect on cell density (OD 600 nm) after 24 hours: single treatment: oxacillin 1 μg/mL alone or amoxapine 150 μM alone
Description: The overnight culture was diluted into fresh CAMHB to a concentration of 5×10^5 CFU/ml. The cell suspension (3 mL) was aliquoted into sterile culture tubes and compound was added to achieve the desired concentrations. An untreated aliquot served as the control. 200 μl of each suspension or of the untreated control was aliquoted into a flat-bottomed microtiter plate. The plate was maintained at 37° C. with shaking and absorbance readings (600 nm) were recorded every 30 minutes for 24 hours.
MRSA was grown in cation-adjusted Mueller-Hinton broth (CAMHB). […] The optical density of the cultures at 600 nm was measured every 2 hours for 8 hours and again at 24 hours.

[4] = target: β-lactamase, MSSA ATCC 29213 (Staphylococcus aureus, UniProt P00807); conditions: MSSA 29213
Description: For whole cell nitrocefin assays, bacteria was cultured overnight in CAMHB at 37° C. with shaking. The overnight culture was subcultured 1:100 in fresh CAMHB and grown at 37° C. with shaking to mid-log phase (OD600=0.4-0.6). The culture was adjusted to an OD600 of 0.2 in fresh CAMHB. […] These suspensions were incubated at 37° C. with shaking for thirty minutes. The suspensions were adjusted to an OD600 of 0.132 in phosphate buffered saline (PBS, pH 7, 900 μl). A 100 μl of a stock solution of nitrocefin (500 mg/ml in PBS) was added to these suspensions and mixed. The nitrocefin-bacteria suspensions (100 μl) were added to the wells of a clear 96-well polystyrene microtiter plate. A 50 mg/ml solution of nitrocefin in PBS served as a blank. Using BioTek Synergy H1 microplate reader maintained at 37° C., the absorbance at 486 nm was recorded every 5 minutes for 2 hours.
The known β-lactamase inhibitor sulbactam was used as a positive control. Again, all assays were run in triplicate and each data point represents the average of three data points.

[5] = tested on: S. aureus ATCC 43300 (MRSA); test: Minimum inhibitory concentration, broth microdilution; format: cell-based, Staphylococcus aureus; conditions: Staphylococcus aureus; compound alone; S. aureus ATCC 43300 (MRSA); CAMHB, 18 h; read-out: MIC
Description: as §2

S. aureus USA300 (MRSA) [6] = test: as above; format: cell-based, Staphylococcus aureus; conditions: Staphylococcus aureus; compound alone; S. aureus USA300 (MRSA); CAMHB, 18 h; read-out: MIC
Description: as §2

pbp2 mRNA = test: RT-qPCR mRNA levels; format: cell-based, Staphylococcus aureus (MRSA); conditions: co-treatment amoxapine and oxacillin vs oxacillin alone
Description: as §3
(§6) 200 ng of total RNA was reverse transcribed using random primers, according to the manufacturer's protocol (BioRad select cDNA synthesis kit). Minus reverse transcriptase controls were prepared for each sample. […] Specificity of each primer pair was assessed with melt curve analyses and agarose gel electrophoresis. The efficiency of each primer pair was calculated using results from calibration curves generated in Microsoft Excel. Contaminating genomic DNA levels were calculated using the comparative Ct method. Gene expression levels relative to 16S rRNA were calculated using a relative quantification model.^17 Statistical significance was determined by unpaired student's t tests. […]

S. aureus ATCC 29213 [7] = test: Minimum inhibitory concentration, broth microdilution; format: cell-based; conditions: Staphylococcus aureus, ATCC29213; compound alone; S. aureus ATCC 29213; CAMHB, 18 h; read-out: MIC
Description: as §2

mecA mRNA = format: cell-based, Staphylococcus aureus (MRSA); conditions: co-treatment amoxapine and oxacillin vs oxacillin alone
Description: as §3, §6

mecI mRNA = format: cell-based, Staphylococcus aureus (MRSA); conditions: co-treatment amoxapine and oxacillin vs oxacillin alone
Description: as §3, §6

[8] = oxacillin treatment, relative to 16S rRNA
[9] = treatment alone, compared to untreated cells
[10] = co-treatment amoxapine and oxacillin vs oxacillin alone

β-lactamase, MSSA ATCC 29213, sequence (P00807 25-281): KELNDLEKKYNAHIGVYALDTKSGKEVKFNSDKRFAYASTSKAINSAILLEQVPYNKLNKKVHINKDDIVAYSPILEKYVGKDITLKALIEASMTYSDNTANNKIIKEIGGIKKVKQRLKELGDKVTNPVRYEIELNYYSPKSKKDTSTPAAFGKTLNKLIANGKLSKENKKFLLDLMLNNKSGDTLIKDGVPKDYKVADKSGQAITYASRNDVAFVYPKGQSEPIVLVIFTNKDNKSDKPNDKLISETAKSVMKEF

Cc1onc(-c2ccccc2)c1C(=O)N[C@@H]1C(=O)N2[C@@H]1SC(C)(C)[C@@H]2C(=O)O [Oxacillin]
MIC (S. epidermidis 49461; Staphylococcus epidermidis, 49461, 18 h, read-out: Oxacillin MIC): 16 µg/mL
MIC of antibiotic (S. aureus USA100 (MRSA); +Loratadine 50 μM): 0.25 µg/mL
MIC (S. aureus USA100 (MRSA); Staphylococcus aureus, read-out: Oxacillin MIC): 512 µg/mL
MIC of antibiotic (S. aureus USA100 (MRSA); antibiotic alone): 256 µg/mL
MIC of antibiotic ([1]; +Loratadine 25 μM): 64 µg/mL
MIC of antibiotic ([1]; +Loratadine 50 μM): 16 µg/mL
MIC (S. aureus ATCC 29213 [2]; Staphylococcus aureus, ATCC29213, read-out: Oxacillin MIC): 0.25 µg/mL
MIC of antibiotic (S. aureus 43300 (MRSA); +Amoxapine (150 μM), S. aureus 43300 (MRSA)): 2 µg/mL
MIC of antibiotic (S. aureus 43300 (MRSA); +Loratadine 25 μM, MRSA 43300): 4 µg/mL
MIC of antibiotic (S. aureus 43300 (MRSA); +Loratadine 50 μM, MRSA 43300): 1 µg/mL
MIC of antibiotic (S. aureus 43300 (MRSA); antibiotic alone, no compound, S. aureus 43300 (MRSA)): 32 µg/mL and 16 µg/mL
MIC of antibiotic (S. aureus 43300 (MRSA); antibiotic alone, S. aureus ATCC 43300 (MRSA)): 32 µg/mL
MIC of antibiotic (S. aureus USA300 (MRSA) [3]; +Loratadine 25 μM): 2 µg/mL
MIC of antibiotic (S. aureus USA300 (MRSA) [3]; +Loratadine 50 μM): 0.5 µg/mL
MIC (S. aureus USA300 (MRSA) [3]; Staphylococcus aureus, read-out: Oxacillin MIC, oxacillin alone, S. aureus USA300 (MRSA)): 32 µg/mL
MIC of antibiotic (S. aureus USA300 (MRSA) [3]; antibiotic alone): 32 µg/mL
Oxacillin MIC (S. aureus USA300 (MRSA) [3]; oxacillin alone, S. aureus USA300 (MRSA)): 64 µg/mL
increase in blaI levels (blaI mRNA; [8]): 13 fold
increase in blaZ mRNA (blaZ mRNA; [8]): 38 fold
effect on cell density (OD 600 nm) after 24 hours (MRSA): negligible effect
effect on β-lactamase activity (nitrocefin hydrolysis) [4, 9]: little effect

Clc1ccc2c(c1)C(N1CCNCC1)=Nc1ccccc1O2 [Amoxapine, 2-chloro-11-(1-piperazinyl)dibenz[b,f][1,4]oxazepine]
MIC [5]: 600 µM
MIC (S. aureus USA300 (MRSA) [6]): 600 µM
Oxacillin MIC (S. epidermidis 49461; +75 μM compound, S. epidermidis 49461): 4 µg/mL
Oxacillin MIC (S. aureus ATCC 29213 [2]; +75 μM compound): 0.25 µg/mL
Oxacillin MIC (S. aureus ATCC 29213 [2]; +150 μM compound): 0.125 µg/mL
Oxacillin MIC (S. aureus USA300 (MRSA) [3]; +75 μM compound, USA300 (MRSA)): 16 µg/mL
Oxacillin MIC (S. aureus USA300 (MRSA) [3]; +150 μM compound, USA300 (MRSA)): 2 µg/mL
effect on mRNA levels of pbp2 (pbp2 mRNA): no significant effect
reduction in blaI levels (blaI mRNA; [10]): 2.2 fold
effect on mRNA levels (blaZ mRNA; amoxapine alone vs untreated control (data not shown)): no significant effect
reduction in blaZ levels (blaZ mRNA; [10]): 3.0 fold
effect on cell density (OD 600 nm) throughout the experiment (MRSA; combination of oxacillin (1 μg/mL) and amoxapine (150 μM), 24 h): potent inhibition of cell density
effect on cell density (OD 600 nm) after 24 hours (MRSA): negligible effect
effect on β-lactamase activity (nitrocefin hydrolysis) ([4]; oxacillin in combination with amoxapine): little effect
effect on β-lactamase activity (nitrocefin hydrolysis) [4, 9]: no effect
MIC (S. aureus ATCC 29213 [7]): 600 µM
reduction in mecA mRNA levels (mecA mRNA): 4.5 fold
reduction in mecI mRNA levels (mecI mRNA): 3.0 fold
